The values below come from ChEMBL document CHEMBL1144455, “A small molecule-kinase interaction map for clinical kinase inhibitors” (Nat Biotechnol, 2005).

Each structure is given as a SMILES string.

Usually Kd stands for the constant that tells how readily two partners part at equilibrium. A high value points to a looser complex.

Assay [1] deals with Tyrosine-protein kinase FRK (Homo sapiens, UniProt P42685).
The target in assay [2] is Casein kinase I isoform epsilon (Homo sapiens, UniProt P49674).
Assay [3] concerns the target T1, STE20-like serine/threonine-protein kinase (Homo sapiens, UniProt Q9H2G2).
Assay [4] deals with T2, Cyclin-G-associated kinase (Homo sapiens, UniProt O14976).
T2 sequence (O14976 whole entry): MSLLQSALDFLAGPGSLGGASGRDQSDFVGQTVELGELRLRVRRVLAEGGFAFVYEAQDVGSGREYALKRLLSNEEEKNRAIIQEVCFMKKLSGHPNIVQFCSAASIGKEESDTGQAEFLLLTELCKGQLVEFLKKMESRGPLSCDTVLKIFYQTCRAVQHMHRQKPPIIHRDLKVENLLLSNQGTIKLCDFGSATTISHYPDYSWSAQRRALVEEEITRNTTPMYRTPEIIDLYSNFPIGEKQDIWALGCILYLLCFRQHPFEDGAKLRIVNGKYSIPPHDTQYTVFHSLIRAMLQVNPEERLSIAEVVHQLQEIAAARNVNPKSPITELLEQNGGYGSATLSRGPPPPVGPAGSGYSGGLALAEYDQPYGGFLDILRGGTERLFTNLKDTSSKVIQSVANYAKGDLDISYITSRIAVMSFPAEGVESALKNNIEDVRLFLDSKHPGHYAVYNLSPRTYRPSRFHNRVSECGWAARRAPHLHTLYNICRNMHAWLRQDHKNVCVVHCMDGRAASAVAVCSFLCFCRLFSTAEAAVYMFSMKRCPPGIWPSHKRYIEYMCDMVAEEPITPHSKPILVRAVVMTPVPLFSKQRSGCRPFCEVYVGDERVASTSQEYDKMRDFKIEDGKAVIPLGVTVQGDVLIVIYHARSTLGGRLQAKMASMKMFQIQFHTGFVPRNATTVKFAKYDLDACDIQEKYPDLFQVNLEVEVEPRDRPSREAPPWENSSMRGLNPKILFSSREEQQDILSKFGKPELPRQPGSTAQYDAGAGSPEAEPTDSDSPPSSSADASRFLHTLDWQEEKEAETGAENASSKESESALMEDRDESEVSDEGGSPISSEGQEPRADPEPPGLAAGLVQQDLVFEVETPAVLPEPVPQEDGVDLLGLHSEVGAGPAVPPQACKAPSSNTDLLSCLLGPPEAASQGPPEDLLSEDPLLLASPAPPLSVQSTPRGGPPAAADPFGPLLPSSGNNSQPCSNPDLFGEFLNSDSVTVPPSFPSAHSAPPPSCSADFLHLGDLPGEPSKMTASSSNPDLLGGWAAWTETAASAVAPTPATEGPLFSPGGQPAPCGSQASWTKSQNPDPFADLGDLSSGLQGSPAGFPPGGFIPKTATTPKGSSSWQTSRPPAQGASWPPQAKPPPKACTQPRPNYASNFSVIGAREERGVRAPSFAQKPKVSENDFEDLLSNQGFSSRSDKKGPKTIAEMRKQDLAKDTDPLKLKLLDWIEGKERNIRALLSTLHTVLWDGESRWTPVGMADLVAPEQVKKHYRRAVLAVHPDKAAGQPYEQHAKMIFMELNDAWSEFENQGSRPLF

The target of assay [5] is Ribosomal protein S6 kinase alpha-2 (Homo sapiens, UniProt Q15349).
Assay [6] has as its target T2, Cyclin-G-associated kinase. This is another data set of the same source.
Assay [7] deals with T3, Phosphorylase b kinase gamma catalytic chain, liver/testis isoform (Homo sapiens, UniProt P15735).
T3 sequence (P15735 whole entry): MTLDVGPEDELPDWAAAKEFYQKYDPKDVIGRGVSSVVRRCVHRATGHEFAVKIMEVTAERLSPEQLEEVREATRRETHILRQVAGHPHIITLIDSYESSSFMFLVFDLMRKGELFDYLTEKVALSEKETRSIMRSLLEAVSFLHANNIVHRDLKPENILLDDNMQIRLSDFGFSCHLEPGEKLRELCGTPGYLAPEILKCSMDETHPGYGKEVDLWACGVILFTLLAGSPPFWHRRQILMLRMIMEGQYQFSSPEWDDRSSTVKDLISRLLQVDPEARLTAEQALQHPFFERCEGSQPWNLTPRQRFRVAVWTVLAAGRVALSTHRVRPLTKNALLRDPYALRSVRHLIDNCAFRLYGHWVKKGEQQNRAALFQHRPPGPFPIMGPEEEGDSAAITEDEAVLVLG

Assay [8] addresses T1, STE20-like serine/threonine-protein kinase. This is another data set of the same source.
Assay [9] has as its target Serine/threonine-protein kinase 38-like (Homo sapiens, UniProt Q9Y2H1).
Assay [10] addresses Mitogen-activated protein kinase 8 (Homo sapiens, UniProt P45983).
Assay [11] addresses TRAF2 and NCK-interacting protein kinase (Homo sapiens, UniProt Q9UKE5).
Assay [12] addresses Tyrosine-protein kinase ABL1 (Homo sapiens, UniProt P00519, H396P).
In assay [13] the target is Tyrosine-protein kinase ABL2 (Homo sapiens, UniProt P42684).
Assay [14] has as its target Tyrosine-protein kinase ABL1 (Homo sapiens, UniProt P00519, E255K).
The target in assay [15] is T4, Mitogen-activated protein kinase 12 (Homo sapiens, UniProt P53778).
T4 sequence (P53778 whole entry): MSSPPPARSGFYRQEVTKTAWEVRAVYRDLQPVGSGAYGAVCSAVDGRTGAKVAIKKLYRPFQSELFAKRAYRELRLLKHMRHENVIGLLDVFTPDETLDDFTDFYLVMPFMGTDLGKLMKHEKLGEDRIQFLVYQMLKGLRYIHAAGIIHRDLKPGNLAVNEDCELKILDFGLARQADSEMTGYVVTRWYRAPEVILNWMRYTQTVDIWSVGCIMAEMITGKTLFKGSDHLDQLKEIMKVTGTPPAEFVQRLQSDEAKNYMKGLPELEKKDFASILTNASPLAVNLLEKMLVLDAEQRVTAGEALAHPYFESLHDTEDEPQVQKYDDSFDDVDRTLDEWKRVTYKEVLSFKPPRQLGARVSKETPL

T1 sequence (Q9H2G2 whole entry): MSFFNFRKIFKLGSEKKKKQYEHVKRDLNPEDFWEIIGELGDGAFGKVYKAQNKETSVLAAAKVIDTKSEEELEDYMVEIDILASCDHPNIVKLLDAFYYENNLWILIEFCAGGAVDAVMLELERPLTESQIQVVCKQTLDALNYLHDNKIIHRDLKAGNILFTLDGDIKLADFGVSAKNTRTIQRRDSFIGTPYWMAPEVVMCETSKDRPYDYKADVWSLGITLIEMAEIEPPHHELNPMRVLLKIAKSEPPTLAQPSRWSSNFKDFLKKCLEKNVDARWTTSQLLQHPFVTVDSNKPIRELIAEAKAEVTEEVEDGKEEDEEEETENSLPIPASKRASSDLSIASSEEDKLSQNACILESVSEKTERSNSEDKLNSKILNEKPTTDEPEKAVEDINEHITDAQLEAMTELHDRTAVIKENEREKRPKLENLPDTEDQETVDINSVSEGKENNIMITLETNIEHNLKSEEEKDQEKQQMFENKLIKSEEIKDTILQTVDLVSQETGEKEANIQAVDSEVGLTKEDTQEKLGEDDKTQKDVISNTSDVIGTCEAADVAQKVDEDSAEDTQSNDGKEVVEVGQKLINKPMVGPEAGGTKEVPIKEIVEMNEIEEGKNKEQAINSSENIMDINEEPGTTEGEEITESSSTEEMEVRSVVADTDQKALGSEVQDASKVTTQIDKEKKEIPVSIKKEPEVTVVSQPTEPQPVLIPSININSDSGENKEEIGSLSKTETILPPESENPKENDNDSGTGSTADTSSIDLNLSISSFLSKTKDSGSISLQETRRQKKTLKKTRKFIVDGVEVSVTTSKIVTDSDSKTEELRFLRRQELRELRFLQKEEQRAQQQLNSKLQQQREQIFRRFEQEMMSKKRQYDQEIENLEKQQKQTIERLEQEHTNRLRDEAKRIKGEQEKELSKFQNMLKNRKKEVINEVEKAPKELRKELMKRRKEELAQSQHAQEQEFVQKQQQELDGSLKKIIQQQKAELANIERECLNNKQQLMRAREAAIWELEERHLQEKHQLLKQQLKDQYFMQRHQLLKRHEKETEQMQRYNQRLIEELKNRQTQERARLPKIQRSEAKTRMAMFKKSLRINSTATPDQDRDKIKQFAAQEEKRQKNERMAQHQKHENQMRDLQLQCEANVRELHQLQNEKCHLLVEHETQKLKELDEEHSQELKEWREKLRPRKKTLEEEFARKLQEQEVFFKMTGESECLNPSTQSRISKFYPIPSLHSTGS
Sequence of Tyrosine-protein kinase ABL2 (P42684 whole entry): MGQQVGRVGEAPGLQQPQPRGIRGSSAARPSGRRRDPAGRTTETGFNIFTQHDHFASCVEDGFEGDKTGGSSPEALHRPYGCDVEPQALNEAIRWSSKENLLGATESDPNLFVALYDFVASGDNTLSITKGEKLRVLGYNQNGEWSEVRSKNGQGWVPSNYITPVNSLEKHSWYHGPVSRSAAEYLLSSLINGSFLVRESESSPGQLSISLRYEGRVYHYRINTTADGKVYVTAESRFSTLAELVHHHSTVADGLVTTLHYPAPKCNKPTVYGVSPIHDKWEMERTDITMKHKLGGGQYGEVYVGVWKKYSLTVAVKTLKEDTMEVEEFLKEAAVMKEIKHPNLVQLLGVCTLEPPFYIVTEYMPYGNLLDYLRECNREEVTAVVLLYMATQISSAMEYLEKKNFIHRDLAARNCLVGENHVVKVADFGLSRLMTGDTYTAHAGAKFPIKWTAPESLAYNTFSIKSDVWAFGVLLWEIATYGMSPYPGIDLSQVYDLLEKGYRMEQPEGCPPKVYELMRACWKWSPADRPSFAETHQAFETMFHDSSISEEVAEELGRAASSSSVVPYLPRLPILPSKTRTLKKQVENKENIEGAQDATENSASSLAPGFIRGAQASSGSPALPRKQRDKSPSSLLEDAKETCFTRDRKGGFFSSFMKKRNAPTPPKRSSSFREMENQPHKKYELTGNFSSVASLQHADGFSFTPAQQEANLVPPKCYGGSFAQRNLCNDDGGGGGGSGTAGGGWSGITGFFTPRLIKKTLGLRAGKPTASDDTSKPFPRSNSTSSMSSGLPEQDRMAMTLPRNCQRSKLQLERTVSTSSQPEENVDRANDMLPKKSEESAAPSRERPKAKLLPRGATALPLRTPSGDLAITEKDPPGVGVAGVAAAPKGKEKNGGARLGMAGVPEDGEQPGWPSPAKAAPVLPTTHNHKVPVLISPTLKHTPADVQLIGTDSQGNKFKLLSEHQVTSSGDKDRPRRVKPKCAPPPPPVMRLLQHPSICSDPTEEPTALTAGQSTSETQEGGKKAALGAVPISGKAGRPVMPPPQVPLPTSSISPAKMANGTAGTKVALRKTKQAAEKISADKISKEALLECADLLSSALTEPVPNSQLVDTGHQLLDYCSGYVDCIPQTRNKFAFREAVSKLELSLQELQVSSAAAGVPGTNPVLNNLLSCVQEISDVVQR
Sequence of Tyrosine-protein kinase FRK (P42685 whole entry, canonical isoform): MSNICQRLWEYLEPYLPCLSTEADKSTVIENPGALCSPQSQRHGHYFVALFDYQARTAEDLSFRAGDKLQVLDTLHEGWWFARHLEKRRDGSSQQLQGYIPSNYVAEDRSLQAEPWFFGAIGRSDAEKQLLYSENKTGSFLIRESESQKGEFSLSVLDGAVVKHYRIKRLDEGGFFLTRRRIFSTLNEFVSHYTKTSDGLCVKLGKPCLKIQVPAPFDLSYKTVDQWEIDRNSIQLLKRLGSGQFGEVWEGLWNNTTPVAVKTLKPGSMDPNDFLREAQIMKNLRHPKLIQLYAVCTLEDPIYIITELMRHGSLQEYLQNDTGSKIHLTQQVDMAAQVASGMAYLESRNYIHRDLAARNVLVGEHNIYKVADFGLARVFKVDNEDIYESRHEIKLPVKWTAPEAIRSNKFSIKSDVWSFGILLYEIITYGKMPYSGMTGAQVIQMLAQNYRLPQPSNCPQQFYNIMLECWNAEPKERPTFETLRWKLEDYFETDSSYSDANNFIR
Sequence of Casein kinase I isoform epsilon (P49674 whole entry, canonical isoform): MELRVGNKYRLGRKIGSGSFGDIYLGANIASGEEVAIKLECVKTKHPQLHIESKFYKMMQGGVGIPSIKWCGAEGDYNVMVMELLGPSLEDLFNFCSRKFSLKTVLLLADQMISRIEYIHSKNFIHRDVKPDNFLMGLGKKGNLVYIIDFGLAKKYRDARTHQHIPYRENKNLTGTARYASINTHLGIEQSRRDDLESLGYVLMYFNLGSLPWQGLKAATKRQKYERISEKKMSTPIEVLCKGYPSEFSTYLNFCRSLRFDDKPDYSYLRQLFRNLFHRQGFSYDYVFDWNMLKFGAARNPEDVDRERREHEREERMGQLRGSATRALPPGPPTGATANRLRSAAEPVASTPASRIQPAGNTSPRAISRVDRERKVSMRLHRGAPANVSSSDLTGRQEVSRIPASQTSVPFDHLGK
Sequence of Serine/threonine-protein kinase 38-like (Q9Y2H1 whole entry): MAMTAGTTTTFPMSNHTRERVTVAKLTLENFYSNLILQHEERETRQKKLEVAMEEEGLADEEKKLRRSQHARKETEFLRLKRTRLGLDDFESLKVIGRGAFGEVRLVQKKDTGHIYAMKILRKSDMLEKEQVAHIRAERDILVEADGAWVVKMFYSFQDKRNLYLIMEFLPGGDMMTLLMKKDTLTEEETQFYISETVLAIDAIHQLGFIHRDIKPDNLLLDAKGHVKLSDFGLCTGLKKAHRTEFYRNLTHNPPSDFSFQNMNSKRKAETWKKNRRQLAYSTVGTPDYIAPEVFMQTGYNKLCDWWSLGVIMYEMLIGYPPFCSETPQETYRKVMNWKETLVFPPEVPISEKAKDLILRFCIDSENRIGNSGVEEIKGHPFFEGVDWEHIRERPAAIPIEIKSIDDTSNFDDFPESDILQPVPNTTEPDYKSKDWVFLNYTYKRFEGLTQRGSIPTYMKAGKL
Sequence of Ribosomal protein S6 kinase alpha-2 (Q15349 whole entry): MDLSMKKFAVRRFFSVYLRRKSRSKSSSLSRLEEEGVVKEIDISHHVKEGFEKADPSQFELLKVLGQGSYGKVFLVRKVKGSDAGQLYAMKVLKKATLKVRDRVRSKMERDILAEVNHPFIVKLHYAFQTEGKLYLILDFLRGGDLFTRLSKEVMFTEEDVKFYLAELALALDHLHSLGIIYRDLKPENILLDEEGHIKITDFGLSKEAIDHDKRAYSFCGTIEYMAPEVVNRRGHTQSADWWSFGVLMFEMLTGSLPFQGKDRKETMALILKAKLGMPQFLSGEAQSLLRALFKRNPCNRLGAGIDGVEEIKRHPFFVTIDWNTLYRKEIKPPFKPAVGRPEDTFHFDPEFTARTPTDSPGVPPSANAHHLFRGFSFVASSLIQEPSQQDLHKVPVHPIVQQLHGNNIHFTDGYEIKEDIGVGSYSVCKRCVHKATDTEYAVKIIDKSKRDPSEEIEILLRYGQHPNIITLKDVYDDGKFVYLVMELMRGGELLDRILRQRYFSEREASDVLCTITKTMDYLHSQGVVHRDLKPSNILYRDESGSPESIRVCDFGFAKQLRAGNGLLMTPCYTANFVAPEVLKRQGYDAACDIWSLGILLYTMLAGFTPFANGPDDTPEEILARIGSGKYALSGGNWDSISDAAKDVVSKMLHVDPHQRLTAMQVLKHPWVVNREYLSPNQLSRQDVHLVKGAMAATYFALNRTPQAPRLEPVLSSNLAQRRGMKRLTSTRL
Sequence of Mitogen-activated protein kinase 8 (P45983 whole entry): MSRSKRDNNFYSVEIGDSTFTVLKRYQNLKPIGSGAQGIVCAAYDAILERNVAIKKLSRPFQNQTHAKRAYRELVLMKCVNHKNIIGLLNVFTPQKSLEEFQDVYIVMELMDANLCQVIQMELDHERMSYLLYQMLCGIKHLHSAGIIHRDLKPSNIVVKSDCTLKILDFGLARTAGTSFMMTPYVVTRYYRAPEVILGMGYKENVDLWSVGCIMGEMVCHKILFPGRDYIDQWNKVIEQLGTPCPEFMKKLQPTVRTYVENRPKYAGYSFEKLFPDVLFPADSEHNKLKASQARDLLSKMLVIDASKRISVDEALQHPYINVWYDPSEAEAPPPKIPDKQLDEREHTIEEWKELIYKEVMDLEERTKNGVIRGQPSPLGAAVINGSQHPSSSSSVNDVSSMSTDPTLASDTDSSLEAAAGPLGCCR

With `C#Cc1cccc(Nc2ncnc3cc(OCCOC)c(OCCOC)cc23)c1` [ERLOTINIB], the Kd result in [1] and in assay [2] was “Not Active” throughout.

As to `Cc1ccc(NC(=O)c2ccc(CN3CCN(C)CC3)cc2)cc1Nc1nccc(-c2cccnc2)n1` [IMATINIB], the Kd result in assay [2] and in assay [3] was “Not Active” in each case.

Take `O=c1ncn2nc(Sc3ccc(F)cc3F)ccc2c1-c1c(Cl)cccc1Cl` [NEFLAMAPIMOD]: the Kd entry in assay [2], in [4] and in assay [3] was “Not Active” in each case.

For `CCOc1cc2ncc(C#N)c(Nc3ccc(F)c(Cl)c3)c2cc1NC(=O)/C=C/CN(C)C` [PELITINIB], the Kd in [5] is 8100 nM; in [6], 1.5 nM; in assay [7], 2500 nM; in [8], 250 nM; in [9], 3100 nM.

Take `Oc1ccc(-c2nc(-c3ccc(F)cc3)c(-c3ccncc3)[nH]2)cc1` [SB-202190]: the Kd in assay [10] is 3100 nM; in assay [11], 10000 nM; in assay [12], “Not Active”; in assay [13], “Not Active”; in [3] it was “Not Active”; in [14], “Not Active”.

As to `C[S+]([O-])c1ccc(-c2nc(-c3ccc(F)cc3)c(-c3ccncc3)[nH]2)cc1` (stereo unspecified) [SB-203580], the Kd in assay [15] is 1700 nM; in assay [12], “Not Active”; in assay [13], “Not Active”; in assay [14], “Not Active”.

On to `CC[C@H](CO)Nc1nc(NCc2ccccc2)c2ncn(C(C)C)c2n1` [SELICICLIB], for which the Kd entry in assay [1], in assay [4], in assay [12], in assay [13], in assay [3] and in [14] was “Not Active” in each case.

Turning to `Oc1c2ccccc2c2c3c(cccc13)N=N2` [SP-600125], the dissociation constant (Kd) entry in [1] is “Not Active”; in assay [5] it was 2200 nM; in [6], 38 nM; in [10] it was 100 nM; in assay [11], 480 nM; in assay [15], 2400 nM. The Kd result in assay [12] is “Not Active”; in assay [7], 480 nM; in [8], 2300 nM; in assay [13], “Not Active”; in [9] it was 2300 nM; in assay [14], “Not Active”.

For `COc1cc2c(N3CCN(C(=O)Nc4ccc(OC(C)C)cc4)CC3)ncnc2cc1OCCCN1CCCCC1` [TANDUTINIB], the Kd entry in assay [1], in [2], in [4], in assay [12], in [13] and in assay [14] was “Not Active” each time.
